Source: PMC7901654, “Bioisosteric Discovery of NPA101.3, a Second-Generation RET/VEGFR2 Inhibitor Optimized for Single-Agent Polypharmacology” (Journal of Medicinal Chemistry, 2020)

Key:
Test in all cases: KinomeScan panel screen
Type in all cases: binding
[1] = molecular target: T1, AKT1 (Homo sapiens, UniProt P31749); settings: AKT1, 100 nM; read-out: Percent Control
T1 construct: purchased DiscoveRx KINOMEscan (TRKA and CSF1R IC50 enzymes from Invitrogen)
Method: (§1) In addition, NPA101.3, at a concentration of 100 nM, was subjected to a kinome scan against a 96-kinase panel representing major kinome clusters (Table S2). The compound featured good selectivity, displaying strong binding activity (>90% bound) for only seven additional kinases [CSF1R (colony stimulating factor 1 receptor), FRK (fyn-related Src family tyrosine kinase), HCK (HCK proto-oncogene, Src family tyrosine kinase), LYN (lyn proto-oncogene, Src family tyrosine kinase), MKNK2 (MAPK-interacting serine/threonine kinase 2), TRKA (neurotrophic receptor tyrosine kinase 1), and TRKC (neurotrophic receptor tyrosine kinase 3)] and weak binding (>10–35% bound) for six other kinases (Table S2 and Figure S2). It is important to note that the measurement of binding affinity, which is based on control ligand displacement (Kd), is more sensitive than the in vitro kinase assay. Among the seven kinases with >90% binding, TRKA and CSF1R were selected for an in vitro kinase assay.
(§2) Supplementary Table S2: NPA101.3 KinomeScan Panel screen.
(§3) NPA101.3 was screened at a single concentration of 100 nM. Hits values lower than
(§4) 10% of control were considered strongly positive.
(§5) DiscoveRx Gene Entrez Gene Percent Compound
(§6) Symbol Symbol Control Concentration

[2] = molecular target: T2, CAMK1 (Homo sapiens, UniProt Q14012); settings: CAMK1, 100 nM; read-out: Percent Control
T2 construct: purchased DiscoveRx KINOMEscan (TRKA and CSF1R IC50 enzymes from Invitrogen)
Method: as §1, §2, §3, §4, §5, §6

[3] = molecular target: T3, CHEK2 (Homo sapiens, UniProt O96017); settings: CHEK2, 100 nM; read-out: Percent Control
T3 construct: purchased DiscoveRx KINOMEscan (TRKA and CSF1R IC50 enzymes from Invitrogen)
Method: as §1, §2, §3, §4, §5, §6

[4] = molecular target: T4, DMPK (Homo sapiens, UniProt Q09013); settings: 100 nM, read-out: Percent Control
T4 construct: purchased DiscoveRx KINOMEscan (TRKA and CSF1R IC50 enzymes from Invitrogen)
Method: as §1, §2, §3, §4, §5, §6

[5] = molecular target: T5, DYRK1A (Homo sapiens, UniProt Q13627); settings: 100 nM, read-out: Percent Control
T5 construct: purchased DiscoveRx KINOMEscan (TRKA and CSF1R IC50 enzymes from Invitrogen)
Method: as §1, §2, §3, §4, §5, §6

[6] = molecular target: T6, EGFR (Homo sapiens, UniProt P00533); settings: 100 nM, read-out: Percent Control
T6 construct: purchased DiscoveRx KINOMEscan (TRKA and CSF1R IC50 enzymes from Invitrogen)
Method: as §1, §2, §3, §4, §5, §6

[7] = molecular target: T7, EIF2AK1 (Homo sapiens, UniProt Q9BQI3); settings: EIF2AK1, 100 nM; read-out: Percent Control
T7 construct: purchased DiscoveRx KINOMEscan (TRKA and CSF1R IC50 enzymes from Invitrogen)
Method: as §1, §2, §3, §4, §5, §6

[8] = molecular target: T8, ERK1 (Homo sapiens, UniProt P27361); settings: ERK1, 100 nM; read-out: Percent Control
T8 construct: purchased DiscoveRx KINOMEscan (TRKA and CSF1R IC50 enzymes from Invitrogen)
T8 sequence (P27361 whole entry): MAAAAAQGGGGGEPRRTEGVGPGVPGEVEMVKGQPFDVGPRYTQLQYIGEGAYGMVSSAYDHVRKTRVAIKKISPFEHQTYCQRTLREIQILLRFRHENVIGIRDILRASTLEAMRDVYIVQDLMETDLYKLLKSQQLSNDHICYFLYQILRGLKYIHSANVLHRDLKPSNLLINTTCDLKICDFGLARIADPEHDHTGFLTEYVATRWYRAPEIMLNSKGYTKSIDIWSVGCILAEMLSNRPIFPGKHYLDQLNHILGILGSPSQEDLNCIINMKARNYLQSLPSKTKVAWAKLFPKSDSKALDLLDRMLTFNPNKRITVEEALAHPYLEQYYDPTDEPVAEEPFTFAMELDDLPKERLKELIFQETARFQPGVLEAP
Method: as §1, §2, §3, §4, §5, §6

[9] = molecular target: T9, GSK3B (Homo sapiens, UniProt P49841); settings: 100 nM, read-out: Percent Control
T9 construct: purchased DiscoveRx KINOMEscan (TRKA and CSF1R IC50 enzymes from Invitrogen)
T9 sequence (P49841 whole entry): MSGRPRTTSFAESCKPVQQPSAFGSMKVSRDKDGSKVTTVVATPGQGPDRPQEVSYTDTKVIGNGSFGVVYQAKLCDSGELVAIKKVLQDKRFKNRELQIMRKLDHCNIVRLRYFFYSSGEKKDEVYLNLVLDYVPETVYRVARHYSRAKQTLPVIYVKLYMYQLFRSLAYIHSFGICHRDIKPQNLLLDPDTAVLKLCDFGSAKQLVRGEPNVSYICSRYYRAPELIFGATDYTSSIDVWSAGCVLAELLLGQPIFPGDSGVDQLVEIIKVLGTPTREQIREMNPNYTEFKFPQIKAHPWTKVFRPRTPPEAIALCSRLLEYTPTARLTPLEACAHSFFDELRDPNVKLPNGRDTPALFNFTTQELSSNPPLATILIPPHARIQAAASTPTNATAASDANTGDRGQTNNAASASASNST
Method: as §1, §2, §3, §4, §5, §6

[10] = molecular target: T10, HCK (Homo sapiens, UniProt P08631); settings: 100 nM
T10 construct: purchased DiscoveRx KINOMEscan (TRKA and CSF1R IC50 enzymes from Invitrogen)
T10 sequence (P08631 whole entry): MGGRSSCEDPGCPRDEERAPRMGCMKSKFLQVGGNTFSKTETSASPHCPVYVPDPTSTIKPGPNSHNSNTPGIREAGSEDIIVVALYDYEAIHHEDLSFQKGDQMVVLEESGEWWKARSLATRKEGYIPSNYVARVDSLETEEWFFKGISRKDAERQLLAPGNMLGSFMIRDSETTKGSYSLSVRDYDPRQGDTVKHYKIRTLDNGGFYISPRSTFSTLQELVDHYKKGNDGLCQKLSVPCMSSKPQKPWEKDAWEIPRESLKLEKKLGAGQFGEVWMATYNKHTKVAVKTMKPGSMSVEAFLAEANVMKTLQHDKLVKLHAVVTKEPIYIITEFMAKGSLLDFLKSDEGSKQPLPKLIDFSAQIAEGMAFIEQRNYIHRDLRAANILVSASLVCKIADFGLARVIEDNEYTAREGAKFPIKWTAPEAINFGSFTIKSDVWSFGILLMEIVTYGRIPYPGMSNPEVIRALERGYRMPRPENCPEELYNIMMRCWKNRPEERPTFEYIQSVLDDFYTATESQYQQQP
Method: as §1, §2, §3, §4, §5, §6

[11] = molecular target: T11, ITK (Homo sapiens, UniProt Q08881); settings: 100 nM, read-out: Percent Control
T11 construct: purchased DiscoveRx KINOMEscan (TRKA and CSF1R IC50 enzymes from Invitrogen)
T11 sequence (Q08881 whole entry): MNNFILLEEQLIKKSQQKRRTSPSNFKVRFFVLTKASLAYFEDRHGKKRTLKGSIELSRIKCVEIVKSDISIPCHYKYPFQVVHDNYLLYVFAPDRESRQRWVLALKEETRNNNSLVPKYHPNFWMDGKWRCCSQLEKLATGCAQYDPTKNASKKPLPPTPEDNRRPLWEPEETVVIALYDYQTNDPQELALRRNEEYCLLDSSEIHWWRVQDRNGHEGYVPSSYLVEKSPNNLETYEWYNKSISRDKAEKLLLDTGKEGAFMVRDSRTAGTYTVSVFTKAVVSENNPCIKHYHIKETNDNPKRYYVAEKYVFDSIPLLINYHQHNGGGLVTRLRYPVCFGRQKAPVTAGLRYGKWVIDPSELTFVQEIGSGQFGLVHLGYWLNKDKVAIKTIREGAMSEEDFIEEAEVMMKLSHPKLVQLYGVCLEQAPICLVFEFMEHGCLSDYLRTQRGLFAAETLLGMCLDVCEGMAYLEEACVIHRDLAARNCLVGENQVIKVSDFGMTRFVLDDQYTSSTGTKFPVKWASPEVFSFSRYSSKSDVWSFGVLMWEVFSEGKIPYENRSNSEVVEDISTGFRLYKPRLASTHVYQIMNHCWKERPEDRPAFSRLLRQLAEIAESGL
Method: as §1, §2, §3, §4, §5, §6

[12] = molecular target: T12, JAK2(JH1domain-catalytic) (Homo sapiens, UniProt O60674); settings: 100 nM, read-out: Percent Control
T12 construct: JAK2(JH1domain-catalytic); purchased DiscoveRx KINOMEscan (TRKA and CSF1R IC50 enzymes from Invitrogen)
Method: as §1, §2, §3, §4, §5, §6

[13] = molecular target: T13, JNK2 (Homo sapiens, UniProt P45984); settings: JNK2, 100 nM; read-out: Percent Control
T13 construct: purchased DiscoveRx KINOMEscan (TRKA and CSF1R IC50 enzymes from Invitrogen)
T13 sequence (P45984 whole entry): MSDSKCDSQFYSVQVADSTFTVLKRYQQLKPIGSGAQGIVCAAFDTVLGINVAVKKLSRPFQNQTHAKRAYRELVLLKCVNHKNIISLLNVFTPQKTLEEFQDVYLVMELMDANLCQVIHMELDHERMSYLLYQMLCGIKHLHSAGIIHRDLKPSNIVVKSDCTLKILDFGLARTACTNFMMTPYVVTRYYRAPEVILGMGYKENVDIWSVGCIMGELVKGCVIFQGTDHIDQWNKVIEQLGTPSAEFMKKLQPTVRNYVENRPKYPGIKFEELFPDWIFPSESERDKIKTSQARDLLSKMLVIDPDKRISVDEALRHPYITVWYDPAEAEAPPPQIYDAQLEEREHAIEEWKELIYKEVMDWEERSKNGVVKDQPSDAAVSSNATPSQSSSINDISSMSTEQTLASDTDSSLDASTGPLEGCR
Method: as §1, §2, §3, §4, §5, §6

[14] = molecular target: T14, LKB1 (Homo sapiens, UniProt Q15831); settings: LKB1, 100 nM; read-out: Percent Control
T14 construct: purchased DiscoveRx KINOMEscan (TRKA and CSF1R IC50 enzymes from Invitrogen)
Method: as §1, §2, §3, §4, §5, §6

[15] = molecular target: T15, MAP4K3 (Homo sapiens, UniProt Q8IVH8); settings: MAP4K3, 100 nM; read-out: Percent Control
T15 construct: purchased DiscoveRx KINOMEscan (TRKA and CSF1R IC50 enzymes from Invitrogen)
Method: as §1, §2, §3, §4, §5, §6

[16] = molecular target: T16, MELK (Homo sapiens, UniProt Q14680); settings: 100 nM, read-out: Percent Control
T16 construct: purchased DiscoveRx KINOMEscan (TRKA and CSF1R IC50 enzymes from Invitrogen)
Method: as §1, §2, §3, §4, §5, §6

[17] = molecular target: T17, NDR1 (Homo sapiens, UniProt Q15208); settings: NDR1, 100 nM; read-out: Percent Control
T17 construct: purchased DiscoveRx KINOMEscan (TRKA and CSF1R IC50 enzymes from Invitrogen)
Method: as §1, §2, §3, §4, §5, §6

[18] = molecular target: T18, PDPK1 (Homo sapiens, UniProt O15530); settings: PDPK1, 100 nM; read-out: Percent Control
T18 construct: purchased DiscoveRx KINOMEscan (TRKA and CSF1R IC50 enzymes from Invitrogen)
Method: as §1, §2, §3, §4, §5, §6

[19] = molecular target: T19, PIM2 (Homo sapiens, UniProt Q9P1W9); settings: PIM2, 100 nM; read-out: Percent Control
T19 construct: purchased DiscoveRx KINOMEscan (TRKA and CSF1R IC50 enzymes from Invitrogen)
Method: as §1, §2, §3, §4, §5, §6

[20] = molecular target: T20, PLK4 (Homo sapiens, UniProt O00444); settings: PLK4, 100 nM; read-out: Percent Control
T20 construct: purchased DiscoveRx KINOMEscan (TRKA and CSF1R IC50 enzymes from Invitrogen)
Method: as §1, §2, §3, §4, §5, §6

[21] = molecular target: T21, PRKD2 (Homo sapiens, UniProt Q9BZL6); settings: PRKD2, 100 nM; read-out: Percent Control
T21 construct: purchased DiscoveRx KINOMEscan (TRKA and CSF1R IC50 enzymes from Invitrogen)
Method: as §1, §2, §3, §4, §5, §6

[22] = molecular target: T22, ROCK2 (Homo sapiens, UniProt O75116); settings: ROCK2, 100 nM; read-out: Percent Control
T22 construct: purchased DiscoveRx KINOMEscan (TRKA and CSF1R IC50 enzymes from Invitrogen)
Method: as §1, §2, §3, §4, §5, §6

[23] = molecular target: T23, RPS6KA4(Kin.Dom.2-C-terminal) (Homo sapiens, UniProt O75676); settings: 100 nM, read-out: Percent Control
T23 construct: RPS6KA4(Kin.Dom.2-C-terminal); purchased DiscoveRx KINOMEscan (TRKA and CSF1R IC50 enzymes from Invitrogen)
T23 sequence (O75676 411-674 limits assumed): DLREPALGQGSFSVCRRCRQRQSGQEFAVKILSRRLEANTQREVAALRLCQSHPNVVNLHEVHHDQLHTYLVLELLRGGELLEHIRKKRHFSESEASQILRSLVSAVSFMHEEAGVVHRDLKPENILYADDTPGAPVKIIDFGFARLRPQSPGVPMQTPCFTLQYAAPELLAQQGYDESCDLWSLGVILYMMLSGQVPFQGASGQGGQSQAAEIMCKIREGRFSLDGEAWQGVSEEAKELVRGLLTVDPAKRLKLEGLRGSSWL
Method: as §1, §2, §3, §4, §5, §6

[24] = molecular target: T24, SLK (Homo sapiens, UniProt Q9H2G2); settings: 100 nM, read-out: Percent Control
T24 construct: purchased DiscoveRx KINOMEscan (TRKA and CSF1R IC50 enzymes from Invitrogen)
Method: as §1, §2, §3, §4, §5, §6

[25] = molecular target: T25, STK33 (Homo sapiens, UniProt Q9BYT3); settings: STK33, 100 nM; read-out: Percent Control
T25 construct: purchased DiscoveRx KINOMEscan (TRKA and CSF1R IC50 enzymes from Invitrogen)
Method: as §1, §2, §3, §4, §5, §6

[26] = molecular target: T26, TAK1 (Homo sapiens, UniProt O43318); settings: TAK1, 100 nM; read-out: Percent Control
T26 construct: purchased DiscoveRx KINOMEscan (TRKA and CSF1R IC50 enzymes from Invitrogen)
Method: as §1, §2, §3, §4, §5, §6

[27] = molecular target: T27, TTK (Homo sapiens, UniProt P33981); settings: 100 nM, read-out: Percent Control
T27 construct: purchased DiscoverX (outsourced KINOMEscan)
Method: as §1, §2, §3, §4, §5, §6

[28] = molecular target: T28, ULK2 (Homo sapiens, UniProt Q8IYT8); settings: ULK2, 100 nM; read-out: Percent Control
T28 construct: purchased DiscoverX (outsourced KINOMEscan)
Method: as §1, §2, §3, §4, §5, §6

[29] = molecular target: T29, WNK1 (Homo sapiens, UniProt Q9H4A3); settings: WNK1, 100 nM; read-out: Percent Control
T29 construct: purchased DiscoverX (outsourced KINOMEscan)
T29 sequence (Q9H4A3 whole entry): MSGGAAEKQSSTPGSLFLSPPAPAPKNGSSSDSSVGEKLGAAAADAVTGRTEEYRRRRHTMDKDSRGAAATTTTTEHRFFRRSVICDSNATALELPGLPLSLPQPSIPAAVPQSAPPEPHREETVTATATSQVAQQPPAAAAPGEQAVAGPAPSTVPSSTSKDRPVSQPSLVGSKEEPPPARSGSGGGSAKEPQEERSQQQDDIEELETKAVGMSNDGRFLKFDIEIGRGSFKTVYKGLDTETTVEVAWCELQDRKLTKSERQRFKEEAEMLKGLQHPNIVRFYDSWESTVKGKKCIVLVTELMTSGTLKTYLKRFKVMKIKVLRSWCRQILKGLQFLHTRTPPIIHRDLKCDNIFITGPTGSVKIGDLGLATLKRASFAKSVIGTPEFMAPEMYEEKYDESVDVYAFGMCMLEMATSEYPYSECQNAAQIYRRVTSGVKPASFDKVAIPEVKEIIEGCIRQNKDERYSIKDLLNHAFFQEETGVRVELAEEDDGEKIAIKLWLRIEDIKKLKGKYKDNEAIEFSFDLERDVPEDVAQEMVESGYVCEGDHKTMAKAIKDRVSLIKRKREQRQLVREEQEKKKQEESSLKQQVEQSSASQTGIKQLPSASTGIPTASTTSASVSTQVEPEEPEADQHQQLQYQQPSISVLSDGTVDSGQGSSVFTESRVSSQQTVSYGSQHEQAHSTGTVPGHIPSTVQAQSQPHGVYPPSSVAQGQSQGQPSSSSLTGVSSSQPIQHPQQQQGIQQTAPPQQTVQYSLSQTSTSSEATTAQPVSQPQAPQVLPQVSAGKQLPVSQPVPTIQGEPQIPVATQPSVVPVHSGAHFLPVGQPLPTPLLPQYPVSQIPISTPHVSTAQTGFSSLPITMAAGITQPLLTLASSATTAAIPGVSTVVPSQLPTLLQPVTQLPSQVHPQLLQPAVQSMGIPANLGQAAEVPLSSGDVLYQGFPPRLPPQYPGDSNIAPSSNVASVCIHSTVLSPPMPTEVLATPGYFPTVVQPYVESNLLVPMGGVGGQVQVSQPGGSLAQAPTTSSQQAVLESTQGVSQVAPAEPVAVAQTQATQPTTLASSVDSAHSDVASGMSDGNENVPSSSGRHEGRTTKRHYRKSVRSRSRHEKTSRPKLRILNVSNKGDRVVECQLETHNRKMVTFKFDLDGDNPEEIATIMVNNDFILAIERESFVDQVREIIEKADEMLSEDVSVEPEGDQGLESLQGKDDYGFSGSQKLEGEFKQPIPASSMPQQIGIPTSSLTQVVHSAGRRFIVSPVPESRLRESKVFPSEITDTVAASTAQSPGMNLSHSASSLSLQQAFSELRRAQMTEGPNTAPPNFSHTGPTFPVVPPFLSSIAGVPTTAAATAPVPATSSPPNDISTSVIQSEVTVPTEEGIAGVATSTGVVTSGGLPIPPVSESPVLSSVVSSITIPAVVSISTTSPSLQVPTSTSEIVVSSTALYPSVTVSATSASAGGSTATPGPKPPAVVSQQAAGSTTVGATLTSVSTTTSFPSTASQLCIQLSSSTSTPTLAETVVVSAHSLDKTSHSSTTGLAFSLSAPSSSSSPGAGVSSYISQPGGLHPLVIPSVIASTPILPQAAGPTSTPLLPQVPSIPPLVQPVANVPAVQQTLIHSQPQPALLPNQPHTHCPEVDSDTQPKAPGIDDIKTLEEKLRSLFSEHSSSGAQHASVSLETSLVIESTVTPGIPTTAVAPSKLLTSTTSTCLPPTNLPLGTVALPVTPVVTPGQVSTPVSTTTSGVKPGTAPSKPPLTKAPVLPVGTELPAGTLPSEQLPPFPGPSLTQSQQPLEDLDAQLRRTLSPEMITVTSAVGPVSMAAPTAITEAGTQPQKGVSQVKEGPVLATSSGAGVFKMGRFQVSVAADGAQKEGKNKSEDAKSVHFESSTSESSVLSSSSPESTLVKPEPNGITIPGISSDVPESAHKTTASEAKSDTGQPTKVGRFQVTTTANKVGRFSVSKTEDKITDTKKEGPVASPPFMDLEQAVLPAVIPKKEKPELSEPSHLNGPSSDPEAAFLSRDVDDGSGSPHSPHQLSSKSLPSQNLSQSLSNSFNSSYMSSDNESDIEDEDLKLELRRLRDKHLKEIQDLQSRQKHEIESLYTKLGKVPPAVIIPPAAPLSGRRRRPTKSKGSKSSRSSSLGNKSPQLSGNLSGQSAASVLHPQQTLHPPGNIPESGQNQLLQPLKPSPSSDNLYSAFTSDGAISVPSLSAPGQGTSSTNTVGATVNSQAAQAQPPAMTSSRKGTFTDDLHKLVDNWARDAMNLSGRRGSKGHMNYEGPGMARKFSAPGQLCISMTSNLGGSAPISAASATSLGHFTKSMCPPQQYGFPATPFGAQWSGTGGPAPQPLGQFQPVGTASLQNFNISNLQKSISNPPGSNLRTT
Method: as §1, §2, §3, §4, §5, §6

Question: How did the remaining binding at 0.1 µM [1] turn out when `CC(C)(C)c1cc(NC(=O)Cc2ccc(-n3cnc4cc(-c5ccc(S(C)(=O)=O)cc5)ccc43)cc2)no1` [NPA101.3] was run?
Answer: 100%

Question: And the remaining binding at 0.1 µM [2]?
Answer: 95%

Question: What about the remaining binding at 0.1 µM [3] of the same compound?
Answer: 79%

Question: What about the remaining binding at 0.1 µM [4] of the same compound?
Answer: 99%

Question: What about the remaining binding at 0.1 µM [5] of the same compound?
Answer: 95%

Question: And the remaining binding at 0.1 µM [6]?
Answer: 96%

Question: What about the remaining binding at 0.1 µM [7] of the same compound?
Answer: 99%

Question: And the remaining binding at 0.1 µM [8]?
Answer: 100%

Question: What about the remaining binding at 0.1 µM [9] of the same compound?
Answer: 100%

Question: What about the “binding (% bound)” value [10] of the same compound?
Answer: > 90 % bound

Question: What about the remaining binding at 0.1 µM ([10]; HCK, read-out: Percent Control) of the same compound?
Answer: 6.5%

Question: What about the remaining binding at 0.1 µM [11] of the same compound?
Answer: 72%

Question: What about the remaining binding at 0.1 µM [12] of the same compound?
Answer: 100%

Question: What about the remaining binding at 0.1 µM [13] of the same compound?
Answer: 78%

Question: And the remaining binding at 0.1 µM [14]?
Answer: 81%

Question: What about the remaining binding at 0.1 µM [15] of the same compound?
Answer: 95%

Question: And the remaining binding at 0.1 µM [16]?
Answer: 83%

Question: What about the remaining binding at 0.1 µM [17] of the same compound?
Answer: 86%

Question: And the remaining binding at 0.1 µM [18]?
Answer: 96%

Question: And the remaining binding at 0.1 µM [19]?
Answer: 94%

Question: What about the remaining binding at 0.1 µM [20] of the same compound?
Answer: 100%

Question: And the remaining binding at 0.1 µM [21]?
Answer: 100%

Question: What about the remaining binding at 0.1 µM [22] of the same compound?
Answer: 100%

Question: And the remaining binding at 0.1 µM [23]?
Answer: 100%

Question: And the remaining binding at 0.1 µM [24]?
Answer: 35%

Question: What about the remaining binding at 0.1 µM [25] of the same compound?
Answer: 83%

Question: And the remaining binding at 0.1 µM [26]?
Answer: 13%

Question: What about the remaining binding at 0.1 µM [27] of the same compound?
Answer: 66%

Question: What about the remaining binding at 0.1 µM [28] of the same compound?
Answer: 100%

Question: What about the remaining binding at 0.1 µM [29] of the same compound?
Answer: 93%
